According to patent US10694743B2, “Agricultural compositions with reduced aquatic toxicity” (priority 2014, dated 2020):
Entries after “also recorded” stand apart in the source; their conditions may differ.

Assays:
wild oat (AVEFA) = assay: Agricultural field test of glyphosate with adjuvant, visual weed control (second trial); type: in vivo, Avena fatua; conditions: glyphosate 480 g.a.e./ha; for AVEFA 9 DAT, %: 0-100, 9 DAT; for AVEFA 23 DAT, %: 0-100, 23 DAT
Protocol: (§1) Amine ethoxylates are evaluated as adjuvants for glyphosate formulations in agricultural field tests performed by an independent laboratory. The weed species included in the evaluation are common lambsquarters (CHEAL), barnyard grass (ECHCG), and wild oat (AVEFA).
(§2) Two field trials are conducted in the Netherlands during the summer. In the first trial, common lambsquarters (CHEAL, Chenopodium album), barnyard grass (ECHCG, Echinochloa crus-galls) and wild oat (AVEFA, Avena fatua) are sown in three distinct zones of the same size in a 4×2 m field plot. Other emerging weed species are removed by hand as needed. Five weeks after sowing, the plots are treated and weed control is visually assessed 8, 14, and 22 days after treatment (DAT). Visual assessment is used with a scale of 0=no effect to 100=complete kill. Growth reduction is included in this assessment. On the day of treatment, ECHCG has more than six leaves, and CHEAL has at least six unfolded leaves. A second test with AVEFA alone is conducted because the level of emergence was too low in the first test. (Results from the first AVEFA testing are not included.) AVEFA is at the 3-leaf stage on the day of treatment. The plots are visually evaluated 9 and 23 days after treatment.
(§3) A glyphosate potassium solution (540 g.a.e./L) without surfactants or other adjuvant chemicals is used to prepare solutions that contain the adjuvants listed in Table 2A. Roundup® Powermax® (540 g.a.e./L, product of Monsanto) is used as a control. The glyphosate solutions are diluted with deionized water such that application at a water volume of 80 L/ha results in a glyphosate application rate of 480 g.a.e./ha. Adjuvants are included in the diluted glyphosate solution at a ratio of 160 g adjuvant per 540 g.a.e. glyphosate. In this way, commercial glyphosate products containing glyphosate at 540 g.a.e./L and adjuvant at 160 g/L are simulated.
(§4) Glyphosate solutions are applied with a backpack sprayer having a TeeJet® TP8003E nozzle set to deliver 80 L/ha at 150 kPa. The application with the first trial started early in the morning in mid-summer. Conditions: sunny skies, relative humidity 80%, temperature 18° C., little or no wind, wet soil, damp foliage. Application of AVEFA trial starts in early autumn late in the afternoon. Conditions: partly cloudy, relative humidity 79%, temperature 15° C., little or no wind, wet soil, dry foliage.

barnyard grass (ECHCG) = assay: Agricultural field test of glyphosate with adjuvant, visual weed control; type: in vivo, Echinochloa crus-galls; conditions: for ECHCG control relative to Roundup Powermax / ECHCG 22 DAT, %: 22 DAT; for ECHCG 8 DAT, % / ECHCG 14 DAT, % / ECHCG 22 DAT, %: visual weed control, 0-100, glyphosate 480 g.a.e./ha
Protocol: as §1, §2, §3, §4

[1] = test system: common lambsquarters (CHEAL); assay: as above; type: in vivo, Chenopodium album; conditions: for CHEAL control relative to the control: 8 and 14 DAT; for CHEAL control relative to Roundup Powermax / CHEAL 22 DAT, %: 22 DAT; for CHEAL 14 DAT, % / CHEAL 22 DAT, % / CHEAL 8 DAT, %: visual weed control, glyphosate 480 g.a.e./ha; for CHEAL 14 DAT, % / CHEAL 22 DAT, %: 0-100; for CHEAL 8 DAT, %: 0=no effect to 100=complete kill, 160 g adjuvant per 540 g.a.e.
Protocol: as §1, §2, §3, §4

[2] = test system: common lambsquarters (CHEAL), barnyard grass (ECHCG), and wild oat (AVEFA); assay: Agricultural field testing, overall performance over the weed species; type: in vivo; conditions: all weed species, glyphosate 480 g.a.e./ha
Protocol: as §1
as §2, with “after treatment. […]” for “after treatment.”

Daphnia magna = assay: Aquatic toxicity screen, Daphnia sp. Acute Immobilization Test (OECD 202 / OPPTS 850.1010); conditions: for 48-Hour EC50: 48-hour exposure, static test conditions
Protocol: The study is performed based on procedures in the OECD Guidelines for Testing of Chemicals, Guideline 202: Daphnia sp., Acute Immobilization Test, and U.S. EPA Guidelines, OPPTS Number 850.1010: Aquatic Invertebrate Acute Toxicity Test. The half maximal effective concentration (EC50) after 48 hours is reported below.

Question: Which “AVEFA 9 DAT, %” value (wild oat (AVEFA)) does the source give for “C11 saturated fatty amine 2EO ethoxylate [Comparative Agent D, reference compound]” here?
Answer: 82.5%

Question: And the “AVEFA 23 DAT, %” value (wild oat (AVEFA))?
Answer: 100%

Question: What about the “ECHCG control relative to Roundup Powermax” value (barnyard grass (ECHCG)) of the same substance?
Answer: outperform Roundup Powermax

Question: What about the “ECHCG 8 DAT, %” value (barnyard grass (ECHCG)) of the same substance?
Answer: 97.5%

Question: What about the “ECHCG 14 DAT, %” value (barnyard grass (ECHCG)) of the same substance?
Answer: 91.3%

Question: What about the “ECHCG 22 DAT, %” value (barnyard grass (ECHCG)) of the same substance?
Answer: 100%

Question: And the “CHEAL control relative to the control” value [1]?
Answer: outperform the control

Question: What about the “CHEAL control relative to Roundup Powermax” value [1] of the same substance?
Answer: same performance as Roundup Powermax

Question: What about the “CHEAL 14 DAT, %” value [1] of the same substance?
Answer: 91.3%

Question: What about the “CHEAL 22 DAT, %” value [1] of the same substance?
Answer: 92.5%

Question: What about the “CHEAL 8 DAT, %” value [1] of the same substance?
Answer: 75.0%

Question: Which results are given for “C11 unsaturated fatty amine 2EO ethoxylate [Agent B]”?
Answer: overall field performance as glyphosate adjuvant [2]: best overall performance of the group; overall field performance as glyphosate adjuvant ([2]; listed as C11 unsaturated 2EO ethoxylate): outperforms its saturated analog; AVEFA 9 DAT, % (wild oat (AVEFA)): 87.5%; AVEFA 23 DAT, % (wild oat (AVEFA)): 100%; ECHCG control relative to Roundup Powermax (barnyard grass (ECHCG)): outperform Roundup Powermax; also recorded: top performer; ECHCG 8 DAT, % (barnyard grass (ECHCG)): 100%; ECHCG 14 DAT, % (barnyard grass (ECHCG)): 97.7%; ECHCG 22 DAT, % (barnyard grass (ECHCG)): 100%; CHEAL control relative to the control [1]: outperform the control; CHEAL control relative to Roundup Powermax [1]: same performance as Roundup Powermax; CHEAL 14 DAT, % [1]: 97.7%; CHEAL 22 DAT, % [1]: 96.7%; CHEAL 8 DAT, % [1]: 86.7%

Question: “saturated C11 fatty amine 5EO ethoxylate [Saturated C11 amine 5EO ethoxylate]” was tested. Which “48-Hour EC50” value (Daphnia magna) did it give?
Answer: 3.3 µg/mL

Question: What about the “aquatic toxicity rating” value (Daphnia magna; in vivo) of the same substance?
Answer: moderately toxic

Question: With “unsaturated C11 fatty amine 5EO ethoxylate [Unsaturated C11 amine 5 EO ethoxylate]” as the substance, how does the “48-Hour EC50” value (Daphnia magna) read?
Answer: 20 µg/mL
